Several values for one entry are separate records, joined by “and”; a condition that tells them apart may be missing. Equal entries are not always repeated. Where two headings read alike, the source gives them in different places.
Columns and labels:
[1] = system: Lovenox; experiment: Reversal of anti-Factor Xa activity in vitro (Stachrom Heparin chromogenic assay), Lovenox; format: biochemical, human; details: for Percent Reversal of anti-Factor Xa Activity, Lovenox: 0.5 U/ml anti-Factor Xa activity
Experimental: (§1) Solutions of Lovenox, Orgaran, or unfractionated heparin (Sigma) were prepared in 0.32% sodium citrate or in normal human plasma to contain 0.5 U/ml anti-FXa activity. Calibrations were made against the standards provided by the Stachrom Heparin (Diagnostica Stago) assay kit. The heparin/ATIII complex was allowed to form at 37° C. for 2 minutes, peptide was added, the mixture was incubated for an additional 1-5 minutes, and then Factor Xa was added, and finally the color reagent, for one minute, and the absorbance was read at 405 nm. The increase in absorbance from the heparinized control to the test sample was divided by the difference in A405 between the heparinized control and the control without heparin to obtain the % reversal.

[2] = system: Orgaran; experiment: Reversal of anti-Factor Xa activity in vitro (Stachrom Heparin chromogenic assay), Orgaran; format: biochemical, human; details: for Percent Reversal of anti-Factor Xa Activity, Orgaran: 0.5 U/ml anti-Factor Xa activity
Experimental: as §1

[3] = system: unfractionated heparin; experiment: Reversal of anti-Factor Xa activity in vitro (Stachrom Heparin chromogenic assay), unfractionated heparin; format: biochemical, human; details: for Percent Reversal of anti-Factor Xa Activity, Heparin (unfractionated): 0.5 U/ml anti-Factor Xa activity
Experimental: as §1

[4] = system: unfractionated heparin; experiment: Reversal of anti-thrombin effects of unfractionated heparin in vitro (thrombin clotting time in plasma); format: biochemical, human; details: heparin 0.5 U/ml; thrombin standardized to clotting time 20-22 seconds
Experimental: Plasma was obtained from normal donors. Thrombin concentration (human alpha thrombin, Enzyme Research Laboratories, South Bend, Ind.) was standardized to produce a clotting time of 20-22 seconds. Heparin was added at 0.5 IU anti-thrombin activity/ml. The clotting time for heparin alone was approximately 3 minutes. To test the effects of the peptides in this system, one minute after addition of heparin to the plasma, the peptides were added in concentrations ranging from 1-200 μg/ml. After one minute, thrombin was added and the clotting time determined. The effects of the peptides were concentration dependent. The clotting time was restored to normal values in all samples at the dosages shown below in Table III. The ability of the peptides to neutralize heparin inhibition of thrombin clotting time was consistent with the binding affinities shown in Table I, and with the effectiveness against low molecular weight heparin anti-Factor Xa activity in Table II.

[5] = Affinity coelectrophoresis (ACE) of radiolabeled heparin through peptides; format: binding, pig; details: for heparin-binding affinity in words: ACE, low Mr heparin
From the text: Preparation of Radiolabeled Heparin—Whole heparin from pig intestinal mucosa (Sigma) was tyramine end-labeled and radiolabeled with Na^125I (Amersham, Pharmacia Biotech, Inc., Piscataway, N.J.) to an average specific activity ≅1.0×10^7 CPM/μg as described^59. Radiolabeled heparin was fractionated on Sephadex G-100 (Bio-Rad Laboratories, Hercules, Calif.) and the final ≅12% of material to elute was retained as the low Mr material of ≦6,000 (Jordan, R., D. Beeler, and R. Rosenberg, J Biol Chem, 254:2902-2913, 1979; Laurent, T. C., et al., Biochem J, 175:691-701, 1978).
(§2) Briefly, peptides were dissolved in 1×ACE running buffer, 50 mM sodium 3-(N-morpholino)-2-hydroxypropanesulfonate (MOPSO, Sigma)/125 mM sodium acetate, pH 7.0, and serially diluted in running buffer at 2× concentrations. Peptides were then mixed 1:1 with 2% agarose/1% CHAPS, 3-[(3-cholamidopropyl)dimethylammonio]-1-propanesulfonate, (Boehringer Mannheim, Indianapolis, Ind.), and loaded into wells of a 1% agarose gel. Radiolabeled heparin or HUVEC PGs were then loaded in a slot on the […] side of the gel, and electrophoresed through the peptide-containing wells, towards the cathode. Gels were dried and PG mobility was measured with a Phosphorimager (Molecular Dynamics, Sunnyvale, Calif.) by scanning each protein lane and determining the relative radioactivity content per. 88-μm pixel through the length of the lane. Retardation coefficient (R) measurements, binding isotherm curve fittings, and apparent Kd value determinations were calculated as detailed previously (Lee, M. K., and A. D. Lander, Proc Nat Acad Sci USA, 88:2768-2772, 1991; San Antonio, J. D., et al, Biochem, 32:47464755, 1993).
Some peptides were also analyzed by ACE for heparin-binding under reducing conditions. Thus, after serial peptide dilution, β-mercaptoethanol (β-ME) was added at 5% to each peptide sample, and these were mixed 1:1 with 2% agarose/1% CHAPS/5% β-ME, and added to the ACE gel sample wells as usual.

[6] = target: HUVEC PGs; experiment: ACE of HUVEC PGs/GAGs through peptide; format: binding, human
Experimental: as §2
Binding analysis of peptides to enzymatically or chemically degraded PGs (see below) was carried out by ACE as detailed, except that PG samples included 6 M urea to denature any residual enzymes.
Cell Culture—HUVEC were isolated as detailed elsewhere (Gimbrone, M. A., In Progress in Hematology and Thrombosis. Vol. III. B. S. Collen, editor. W B Saunders, Philadelphia. 1-28, 1976) and were used up to passage seven. Cells were cultured on 0.2% gelatin-coated tissue culture flasks in normal culture media composed of medium 199 (Gibco BRL, Gaithersburg, Md.), 10% fetal bovine serum (FBS, Mediatech Inc.), 80 μg/ml endothelial cell growth supplement isolated from bovine hypothalami as described (Maciag, T., et al., Proc Nat Acad Sci USA, 76 (11):5674-5678, 1979), 50 μg/ml heparin (porcine intestinal mucosa, grade 1A, Sigma) 1% penicillin-streptomycin, and 0.1% fungizone.
Radiolabeling and Isolation of Total HUVEC PGs and GAGs—Exponentially growing, subconfluent HUVEC were labeled with 35μCi/ml ^35S-Na2SO4 (ICN Pharmaceuticals, Costa Mesa, Calif.) in normal culture media minus heparin for 12 h. Culture media and cell layers were harvested separately. After removal of the media, cells were washed with 2.0 ml PBS plus Ca^2+-Mg^2′. Media and rinses were pooled and brought to 6 M urea, 10 mM EDTA, 1 mM phenymethylsulfonyl fluoride (PMSF), 5 mM N-ethylmaleimide (NEM), 50 mM 6-aminocaproic acid, 5 mM benzamidine, and 1 μg/ml pepstatin A. Samples were stirred for 15 min at room temperature, then centrifuged at 10,000 rpm for 30 min to remove insoluble materials.
To the cell layer was added 2.0 ml of extraction solution, 6M urea, 100 mM NaCl, 0.2% Triton X-100, 50 mM Tris-HCl, pH 7.0, and protease inhibitors as described above. Cells were scraped off the dishes, and the extracts were pooled and stirred for 5 min at room temperature, and then centrifuged as described above.
Samples were concentrated on DEAE columns (DEAE Bio-Gel A Agarose, Bio-Rad Laboratories) equilibrated with low salt buffer, 0.1 M NaCl, 6 M urea, and 50 mM Tris-HCl, pH 7.0. Columns were rinsed with 10 ml of low salt buffer; flow through was discarded. Bound PGs/GAGs were eluted with 3 ml of high salt buffer, 1.5 M NaCl, 6 M urea, and 50 mM Tris-HCl, pH 7.0. Eluted samples were dialyzed against distilled water, lyophilized and stored at −20° C. until binding analysis.
Enzymatic Digestions of PGs—The contributions of PG GAG chain components to peptide binding affinities were assessed by selective enzymatic degradation of GAG chains prior to ACE analysis. ^35S-Na2SO4 labeled HUVEC PGs were digested with chondroitinase ABC, or heparatinase I (Seikagaku America, Ijamsville, Md.). […]

Substance	Percent Reversal of anti-Factor Xa Activity, Lovenox ([1]; peptide 0.6 mg/ml in plasma) [%]	Percent Reversal of anti-Factor Xa Activity, Orgaran ([2]; peptide 0.6 mg/ml in plasma) [%]	Percent Reversal of anti-Factor Xa Activity, Heparin (unfractionated) ([3]; peptide 0.6 mg/ml in plasma) [%]	heparin-binding affinity in words [5]	also measured
YPTQRARYQWVRCNP	0	5	90		effectiveness against Lovenox / low molecular weight heparin in vitro, in words ([1]; text summary of Table II): not against Lovenox; effectiveness against Orgaran in vitro, in words ([2]; text summary of Table II): highly effective; effectiveness against UFH / heparin in vitro, in words ([3]; text summary of Table II): highly effective; μg peptide/ml heparinized plasma needed to normalize thrombin time [4]: 100 μg peptide/ml heparinized plasma
AKKARA				do not bind heparin with a measurable affinity	
AAARRARAAAARAKA					decrease in heparin-binding affinity versus native mouse SG peptide ([5]; modified sequence versus YPARRARYQWVRCKP): 350 fold
(ARKKPAKA)3 (ARKKPAKAARKKPAKAARKKPAKA; protein fragment) [proline in each tandem repeat in place of an alanine]	100	66.5	99.0		Percent Reversal of anti-Factor Xa Activity, Lovenox ([1]; peptide 0.12 mg/ml in plasma): 62.0%; Percent Reversal of anti-Factor Xa Activity, Lovenox ([1]; peptide 0.4 mg/ml in plasma): 62.5%; Percent Reversal of anti-Factor Xa Activity, Orgaran ([2]; peptide 0.12 mg/ml in plasma): 45.0%; Percent Reversal of anti-Factor Xa Activity, Orgaran ([2]; peptide 0.4 mg/ml in plasma): 67.5%; Percent Reversal of anti-Factor Xa Activity, Heparin (unfractionated) ([3]; peptide 0.12 mg/ml in plasma): 90.0%; Percent Reversal of anti-Factor Xa Activity, Heparin (unfractionated) ([3]; peptide 0.4 mg/ml in plasma): 50.0%
ARKKAAKA				do not bind heparin with a measurable affinity	
(AKAAKKRA)3 (AKAAKKRAAKAAKKRAAKAAKKRA; protein fragment) [XBBBXXBX tandem repeat peptide, reversed orientation]	93.5	72.0	94.0		μg peptide/ml heparinized plasma needed to normalize thrombin time [4]: >50 μg peptide/ml heparinized plasma
(ARKKAAKA)5 (ARKKAAKAARKKAAKAARKKAAKAARKKAAKAARKKAAKA; protein fragment) [XBBBXXBX tandem repeat peptide]	81.5	83.0	94.5		Percent Reversal of anti-Factor Xa Activity, Lovenox ([1]; peptide 0.12 mg/ml in plasma): 68.5%; Percent Reversal of anti-Factor Xa Activity, Lovenox ([1]; peptide 0.4 mg/ml in plasma): 71.0%; Percent Reversal of anti-Factor Xa Activity, Orgaran ([2]; peptide 0.12 mg/ml in plasma): 75.0%; Percent Reversal of anti-Factor Xa Activity, Orgaran ([2]; peptide 0.4 mg/ml in plasma): 75.0%; Percent Reversal of anti-Factor Xa Activity, Heparin (unfractionated) ([3]; peptide 0.12 mg/ml in plasma): 64.5%; Percent Reversal of anti-Factor Xa Activity, Heparin (unfractionated) ([3]; peptide 0.4 mg/ml in plasma): 93.0%; μg peptide/ml heparinized plasma needed to normalize thrombin time [4]: 21 μg peptide/ml heparinized plasma
AKKARAAKKARAAKKARAAKKARAAKKARA [(AKKARA)5, XBBXBX tandem repeat peptide]				strong	
(ARRRAARA)3 [XBBBXXBX tandem repeat peptide]	67.5	67.0	57.5		
YPARRARYQWVRAKP [murine serglycin, cysteine replaced with alanine]	0	2.0	25.0	negligible	
ARKKAAKAARKKPAKAARKKAAKA	83.0	67.0	57.5		
(ARKKAAKA)4 (ARKKAAKAARKKAAKAARKKAAKAARKKAAKA; protein fragment) [XBBBXXBX tandem repeat peptide]	73	70.5	87.5		Kd ([6]; 35S-labeled secreted/total EC PGs, read-out: Kd for total (secreted) HUVEC PGs): ~300 nM; Kd for HUVEC PGs devoid of CS GAGs via chondroitinase ABC (ABC) digestion ([6]; chondroitinase ABC digested PGs): comparable affinity; Kd ([6]; chondroitinase ABC digested PGs, read-out: Kd for HUVEC PGs devoid of CS GAGs via chondroitinase ABC (ABC) digestion): ~300 nM; Kd ([6]; free GAG chains of total PGs, read-out: Kd for GAG chains liberated from core protein by borohydride reduction (BH)): ~1200 nM; reduction in affinity after borohydride release of GAG chains ([6]; free GAG chains versus intact PGs): 3 fold and 3-4 fold; Kd for HUVEC PGs devoid of HS GAGs via heparatinase I digestion (H) ([6]; heparatinase I digested PGs): comparable affinity; Kd ([6]; heparatinase I digested PGs, read-out: Kd for HUVEC PGs devoid of HS GAGs via heparatinase I digestion (H)): ~300 nM; Kd for HUVEC PGs devoid of HS GAGs via nitrous acid treatment (NA) ([6]; nitrous acid degraded PGs): comparable affinity; Kd ([6]; nitrous acid degraded PGs, read-out: Kd for HUVEC PGs devoid of HS GAGs via nitrous acid treatment (NA)): ~300 nM

Reference: patent publication US6855801B1, “Peptides modulating activities of heparin other glycosaminoglycans or proteoglycans” (Thomas Jefferson University, priority 1999, dated 2005)
